Results on 6 substances are retold here after US9057726B2, “Neuropeptide Q as modulator of GPCR GALR2 and uses thereof” (Actelion Pharmaceuticals Ltd., priority 2010, dated 2015).

Test [1] concerns the target T1, GALR2 (Homo sapiens, UniProt O43603).
T1 sequence (O43603 1-387): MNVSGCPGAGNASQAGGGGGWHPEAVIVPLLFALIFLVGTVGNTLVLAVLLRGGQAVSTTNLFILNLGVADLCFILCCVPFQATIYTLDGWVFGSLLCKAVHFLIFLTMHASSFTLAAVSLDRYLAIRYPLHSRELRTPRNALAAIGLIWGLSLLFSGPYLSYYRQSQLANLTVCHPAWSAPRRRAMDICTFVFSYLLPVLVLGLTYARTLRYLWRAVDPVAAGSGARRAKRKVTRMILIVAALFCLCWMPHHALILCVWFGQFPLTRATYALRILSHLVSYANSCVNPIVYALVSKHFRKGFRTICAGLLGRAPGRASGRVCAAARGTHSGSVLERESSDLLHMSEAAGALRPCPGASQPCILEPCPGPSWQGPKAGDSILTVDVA
Kind of test: FLIPR assay (intracellular calcium release). The arrangement: expressed in transfected cells; host or cells: CHO-K1 (coexpressing Gα16). The class given is cell-based. As to conditions: CHO-K1 cells coexpressing Gα16 and human GALR2. A general note: Calcium assays in cells follow changes in intracellular calcium, usually with a dye or a luminescent sensor.
Description: CHO-K1 cells coexpressing Gα16 and the recombinant human GALR2 receptor grown to mid-log phase in culture media are detached with PBS-EDTA, centrifuged, resuspended in cell-culture medium (HAM's F12 with HEPES, 10% (v/v) Fetal Calf Serum), and dispensed at 15′000 cells per well in 384-well FLIPR plates. After overnight incubation in a humidified 37° C./5% CO2 incubator, the medium was discarded and replaced with a dye solution (DMEM w/o Phenol Red with HEPES, Fluo4-AM and Probenecid). After an incubation of 1 hour in a humidified 37° C./5% CO2 incubator, the dye solution was replaced by Assay Medium (HBSS/DMEM w/o phenol red). […] The resulting emission of fluorescence is recorded using FLIPR tetra. For antagonist testing 100 μl of the Neuropeptide Q polypeptide at its EC80 is injected on the mix of cells and candidate modulator, following an incubation of 15 min after the first injection. The resulting emission of fluorescence is recorded using FLIPR tetra. Agonist activity of the candidate modulator is expressed as a percentage of the activity of the Neuropeptide Q polypeptide at its EC100 concentration. Antagonist activity of the candidate modulator is expressed as a percentage of the inhibition of Neuropeptide Q polypeptide activity at its EC80 concentration.

A further test relates to stomach muscle. The following applies: stomach explants, dose-dependent contraction; cited from earlier work.
Test [2] addresses T1, GALR2. The following applies: in vitro studies; cited from earlier work.

No end group written: not given here.

Take PWTPQAMLYLKGAQG: the EC50 at GALR2 [1] turned out to be 0.1 nM.
Consider “NWTPQAMLYLKGAQ [Neuropeptide Q, synthetic amidated Neuropeptide Q tested by Mirabeau et al]”, for which, in the test with stomach muscle, the EC50 was 750 nM.
Take NWTPQAMLYLKGAAG: at GALR2 [1], the EC50 was 0.1 nM.
Regarding NWTPQAMLYLKGPQG, on GALR2 [1], the EC50 was 0.3 nM.
On to “galanin-(2-13)-Glu-His-(Pro)3-(Ala-Leu)2-Ala-amide [Peptide M871]”, for which the “higher affinity for GALR2 than for GALR1” value on GALR2 [2] was 32 fold.
As to NWTPQAMLYLKGAQP, the EC50 at GALR2 [1] is 0.3 nM.

As a reminder, the EC50 is the midpoint of the concentration-response curve.
